What was measured:
Assay in all cases: relative viability (nuclei count vs DMSO), 5 days (fraction); higher = more cells survive
NCI-H1651 = tested on: NCI-H1651
Summary of the method: (§1)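 Lung cancer cell lines, seeded in 1536-well plates, were treated the following day by pin tool with a single drug or with five library-drug doses (not always all listed) in √10 steps on top of a fixed anchor-drug dose. Cells were fixed and nuclei stained in one step after 5 days, and nuclei were counted. Relative viability is the nuclei count for treated wells divided by that for vehicle wells, reported as medians of duplicate plates.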

SK-MES-1 = tested on: SK-MES-1
Summary of the method: as §1

NCI-H1395 = tested on: NCI-H1395
Summary of the method: as §1

LC-2-ad = tested on: LC-2-ad
Summary of the method: as §1

PC-3 [JPC-3] = tested on: PC-3 [JPC-3]
Summary of the method: as §1

NCI-H2342 = tested on: NCI-H2342
Summary of the method: as §1

NCI-H1755 = tested on: NCI-H1755
Summary of the method: as §1

NCI-H2228 = tested on: NCI-H2228
Summary of the method: as §1

NCI-H1793 = tested on: NCI-H1793
Summary of the method: as §1

NCI-H1437 = tested on: NCI-H1437
Summary of the method: as §1

EMC-BAC-2 = tested on: EMC-BAC-2
Summary of the method: as §1

NCI-H2347 = tested on: NCI-H2347
Summary of the method: as §1

EKVX = tested on: EKVX
Summary of the method: as §1

NCI-H1944 = tested on: NCI-H1944
Summary of the method: as §1

NCI-H1915 = tested on: NCI-H1915
Summary of the method: as §1

NCI-H2087 = tested on: NCI-H2087
Summary of the method: as §1

LK-2 = tested on: LK-2
Summary of the method: as §1

CAL-12T = tested on: CAL-12T
Summary of the method: as §1

LXF-289 = tested on: LXF-289
Summary of the method: as §1

NCI-H661 = tested on: NCI-H661
Summary of the method: as §1

NCI-H2085 = tested on: NCI-H2085
Summary of the method: as §1

SK-LU-1 = tested on: SK-LU-1
Summary of the method: as §1

COR-L 105 = tested on: COR-L 105
Summary of the method: as §1

H3255 = tested on: H3255
Summary of the method: as §1

NCI-H522 = tested on: NCI-H522
Summary of the method: as §1

CCCCCCCCCCCC1=C(O)C(=O)C=C(O)C1=O [Embelin] + N=C(N)NC(=N)NCCc1ccccc1 [Phenformin] (partner 250 µM)
relative viability (NCI-H1651; first compound 0.08 µM): 0.346 | relative viability (NCI-H1651; first compound 0.8 µM): 0.412 | relative viability (NCI-H1651; first compound 2.53 µM): 0.361 | relative viability (NCI-H1651; first compound 8 µM): 0.321 | relative viability (SK-MES-1; first compound 0.08 µM): 0.67 | relative viability (SK-MES-1; first compound 0.8 µM): 0.694 | relative viability (SK-MES-1; first compound 2.53 µM): 0.75 | relative viability (SK-MES-1; first compound 8 µM): 0.585 | relative viability (NCI-H1395; first compound 0.08 µM): 0.46 | relative viability (NCI-H1395; first compound 0.8 µM): 0.495 | relative viability (NCI-H1395; first compound 2.53 µM): 0.474 | relative viability (NCI-H1395; first compound 8 µM): 0.395 | relative viability (LC-2-ad; first compound 0.08 µM): 0.608 | relative viability (LC-2-ad; first compound 0.8 µM): 0.772 | relative viability (LC-2-ad; first compound 2.53 µM): 0.617 | relative viability (LC-2-ad; first compound 8 µM): 0.367 | relative viability (PC-3 [JPC-3]; first compound 0.08 µM): 0.475 | relative viability (PC-3 [JPC-3]; first compound 0.8 µM): 0.476 | relative viability (PC-3 [JPC-3]; first compound 2.53 µM): 0.477 | relative viability (PC-3 [JPC-3]; first compound 8 µM): 0.477 | relative viability (NCI-H2342; first compound 0.08 µM): 0.594 | relative viability (NCI-H2342; first compound 0.8 µM): 0.551 | relative viability (NCI-H2342; first compound 2.53 µM): 0.701 | relative viability (NCI-H2342; first compound 8 µM): 0.516 | relative viability (NCI-H1755; first compound 0.08 µM): 0.646 | relative viability (NCI-H1755; first compound 0.8 µM): 0.656 | relative viability (NCI-H1755; first compound 2.53 µM): 0.608 | relative viability (NCI-H1755; first compound 8 µM): 0.6 | relative viability (NCI-H2228; first compound 0.08 µM): 0.332 | relative viability (NCI-H2228; first compound 0.8 µM): 0.314 | relative viability (NCI-H2228; first compound 2.53 µM): 0.403 | relative viability (NCI-H2228; first compound 8 µM): 0.309 | relative viability (NCI-H1793; first compound 0.08 µM): 0.355 | relative viability (NCI-H1793; first compound 0.8 µM): 0.42 | relative viability (NCI-H1793; first compound 2.53 µM): 0.473 | relative viability (NCI-H1793; first compound 8 µM): 0.352 | relative viability (NCI-H1437; first compound 0.08 µM): 0.4 | relative viability (NCI-H1437; first compound 0.8 µM): 0.324 | relative viability (NCI-H1437; first compound 2.53 µM): 0.298 | relative viability (NCI-H1437; first compound 8 µM): 0.243 | relative viability (EMC-BAC-2; first compound 0.08 µM): 0.56 | relative viability (EMC-BAC-2; first compound 0.8 µM): 0.669 | relative viability (EMC-BAC-2; first compound 2.53 µM): 0.471 | relative viability (EMC-BAC-2; first compound 8 µM): 0.504 | relative viability (NCI-H2347; first compound 0.08 µM): 0.308 | relative viability (NCI-H2347; first compound 0.8 µM): 0.386 | relative viability (NCI-H2347; first compound 2.53 µM): 0.345 | relative viability (NCI-H2347; first compound 8 µM): 0.377 | relative viability (EKVX; first compound 0.08 µM): 0.245 | relative viability (EKVX; first compound 0.8 µM): 0.229 | relative viability (EKVX; first compound 2.53 µM): 0.205 | relative viability (EKVX; first compound 8 µM): 0.247 | relative viability (NCI-H1944; first compound 0.08 µM): 0.196 | relative viability (NCI-H1944; first compound 0.8 µM): 0.237 | relative viability (NCI-H1944; first compound 2.53 µM): 0.203 | relative viability (NCI-H1944; first compound 8 µM): 0.202 | relative viability (NCI-H1915; first compound 0.08 µM): 0.382 | relative viability (NCI-H1915; first compound 0.8 µM): 0.382 | relative viability (NCI-H1915; first compound 2.53 µM): 0.364 | relative viability (NCI-H1915; first compound 8 µM): 0.411 | relative viability (NCI-H2087; first compound 0.08 µM): 0.486 | relative viability (NCI-H2087; first compound 0.8 µM): 0.459 | relative viability (NCI-H2087; first compound 2.53 µM): 0.426 | relative viability (NCI-H2087; first compound 8 µM): 0.479 | relative viability (LK-2; first compound 0.08 µM): 0.626 | relative viability (LK-2; first compound 0.8 µM): 0.278 | relative viability (LK-2; first compound 2.53 µM): 0.735 | relative viability (LK-2; first compound 8 µM): 0.26 | relative viability (CAL-12T; first compound 0.08 µM): 0.578 | relative viability (CAL-12T; first compound 0.8 µM): 0.687 | relative viability (CAL-12T; first compound 2.53 µM): 0.554 | relative viability (CAL-12T; first compound 8 µM): 0.543 | relative viability (LXF-289; first compound 0.08 µM): 0.509 | relative viability (LXF-289; first compound 0.8 µM): 0.547 | relative viability (LXF-289; first compound 2.53 µM): 0.527 | relative viability (LXF-289; first compound 8 µM): 0.571 | relative viability (NCI-H661; first compound 0.08 µM): 0.287 | relative viability (NCI-H661; first compound 0.8 µM): 0.312 | relative viability (NCI-H661; first compound 2.53 µM): 0.276 | relative viability (NCI-H661; first compound 8 µM): 0.261 | relative viability (NCI-H2085; first compound 0.08 µM): 0.708 | relative viability (NCI-H2085; first compound 0.8 µM): 0.884 | relative viability (NCI-H2085; first compound 2.53 µM): 0.73 | relative viability (NCI-H2085; first compound 8 µM): 0.664 | relative viability (SK-LU-1; first compound 0.08 µM): 0.608 | relative viability (SK-LU-1; first compound 0.8 µM): 0.624 | relative viability (SK-LU-1; first compound 2.53 µM): 0.534 | relative viability (SK-LU-1; first compound 8 µM): 0.365 | relative viability (COR-L 105; first compound 0.08 µM): 0.582 | relative viability (COR-L 105; first compound 0.8 µM): 0.595 | relative viability (COR-L 105; first compound 2.53 µM): 0.446 | relative viability (COR-L 105; first compound 8 µM): 0.496 | relative viability (H3255; first compound 0.08 µM): 0.374 | relative viability (H3255; first compound 0.8 µM): 0.326 | relative viability (H3255; first compound 2.53 µM): 0.324 | relative viability (H3255; first compound 8 µM): 0.362 | relative viability (NCI-H522; first compound 0.08 µM): 0.722 | relative viability (NCI-H522; first compound 0.8 µM): 0.856 | relative viability (NCI-H522; first compound 2.53 µM): 0.674 | relative viability (NCI-H522; first compound 8 µM): 0.621

Reference: the supplement of paper PMC10307832
